One test relates to Human whole blood. The experiment in a line: Human Whole Blood Assay (LPS induced PGE2 production). Format: cell-based. To be noted: LPS 100 μg/mL, 20-24 hours, PGE2 by LC/MS/MS, read-out: PGE2 Inhibition. IC50 (μM, mean ± std. dev.). The method, then: Blood is collected from normal volunteer donors into sodium heparin vacutainer tubes. Donors are selected, in part, on their confirmation that they have not taken NSAIDs, aspirin, Celebrex, or glucocorticoids within two weeks of the donation. All tubes/donor are pooled into 250 mL Corning conical centrifuge tubes and 436.5 μL/well is distributed into deep well polypropylene plates. Compounds are diluted in DMSO to 100× final and 4.5 μL/well in duplicate or triplicate is added to give 7 point curves. […] One hundred microliters is quantitatively transferred to Costar cluster tubes blocks and 400 μL/well of the methanol stop reagent and internal standards, d-4PGE2, d-4PGF2α, and d-4TX2β are added. […]
Solid phase extraction is performed using Waters HLB 30 mg/bed 96 well plates on a vacuum manifold: 1) the matrix is washed with methanol (1 mL), followed by 0.1% formic acid in water (1 mL); 2) 400 μL sample is applied along with 0.1% formic acid in water (900 μL) and allowed to bind for 5 minutes; 3) the matrix is washed with 0.1% formic acid in water (600 μL), followed by 80/20 water/methanol (600 μL); 4) the products are eluted with 2-500 μL volumes of ethyl acetate; 5) the samples are dried under nitrogen and reconstituted in 75/25 water/acetonitrile with 0.1% formic acid (50 μL). The products were analyzed by LC/MS/MS. […]

Test [1] has as its system Human epithelial lung carcinoma cell line A549. The experiment in a line: Cell Based Assay for Measuring Eicosanoid Selectivity (rhIL-1β induced PGE2 in A549 cells). To be noted: rhIL-1β 0.1-0.2 ng/mL, approximately 18 hours, PGE2 by EIA, read-out: PGE2 Inhibition. IC50 (μM, mean ± std. dev.). On the procedure:
Human epithelial lung carcinoma cell line A549 is obtained from ATCC (CCL-185) and is maintained in Kaighn's F12 (“F12K”)+10% fetal bovine serum, (FBS) (plating medium), and 5% CO2. The cells are passaged at 1:3 twice per week.
For assay, cells are released from flasks by washing once with phosphate buffered saline (PBS), then once with Trypsin/EDTA. After 3-5 minutes at 37° C., the cells are suspended in 10 mL of plating medium and centrifuged at 2000 rpm, 25° C., for 5 minutes. The supernatant is aspirated and the cell pellet is resuspended in 10 mL F12K. Cell number is determined by counting an aliquot of cells which has been diluted in PBS and Trypan blue on a hemocytometer. Cells are plated at 40,000/well in 96 well Falcon plates 24 hours prior to treatment. Compounds are diluted in DMSO to 100× of the final concentration in Screen Mates tubes. The medium is removed from the cells and fresh medium (90 μL/well) is added to the cells. […] The plates are incubated at room temperature for 30-45 minutes and then read on a plate reader at A490 to determine viability. […]
The conditioned medium is assayed for levels of PGE2 and PGI2 by specific enzyme immune-assays (EIAs), according to the manufacturer's protocols (Cayman). […] After approximately 45 minutes at room temperature on an orbital shaker at 100 rpm, the plates are read at A412 on a plate reader. […]

The IC50 is the concentration that gives 50% inhibition.

For the compound `CC(C)(C)C(=O)NCc1ccc(Br)c(C(=O)Nc2ncc[nH]2)c1` [Example 5, 2-Bromo-5-[(2,2-dimethylpropanoylamino)methyl]-N-(1H-imidazol-2-yl)benzamide], the half-maximal inhibitory concentration (IC50) amounted to 0.607 ± 0.502 µM in the test with Human whole blood and 0.19 µM in test [1].

The values above are taken from patent US8252831B2, “Imidazole-2-benzamide compounds useful for the treatment of osteoarthritis” (Eli Lilly and Company, priority 2010, dated 2012).
